In patent US20240101570A1 (AMGEN INC., priority 2020, published 2024):

Legend:
HCT116 MTAP null cells = experiment: HCT116 MTAP null cell proliferation / viability (CellTiter-Glo, 6 days); format: cell-based; conditions: HCT116-MTAP null, 144 h, HCT116 MTAP null cells, 6 days, CellTiter-Glo; read-out: HCT-116 MTAP null IC50
Procedure, shortened: (§1)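 IC50 values derive from sigmoidal dose-response fits, some with Hill slope fixed at −1 and top constrained to 100%, others from 4-parameter logistic models. They reflect CellTiter-Glo viability after 6 days of compound exposure at up to 10 or 50 μM.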

HCT116 WT cells = experiment: HCT116 WT cell proliferation / viability (CellTiter-Glo, 6 days); format: cell-based; conditions: Homo sapiens, HCT-116, 144 h, HCT116 WT cells, 6 days, CellTiter-Glo; read-out: HCT-116 WT IC50
Procedure, shortened: as §1

## CC1OCc2c1c(N)nc1ccc(C(=O)N(Cc3ccc(C(F)(F)F)cn3)Cc3ccnc4[nH]ccc34)cc21 (stereo not shown) [Example 916, N-((1H-pyrrolo[2,3-b]pyridin-4-yl)methyl)-4-amino-3-methyl-N-((5-(trifluoromethyl)pyridin-2-yl)methyl)-1,3-dihydrofuro[3,4-c]quinoline-8-carboxamide]
HCT116 MTAP null cells
  IC50: 6 nM
HCT116 WT cells
  IC50: 200 nM

## CC1OCc2c1c(N)nc1ccc(C(=O)N(Cc3ccc(C(F)(F)F)cn3)CC3(C#N)CC3)cc21 (stereo not shown) [Example 917, 4-amino-N-((1-cyanocyclopropyl)methyl)-3-methyl-N-((5-(trifluoromethyl)pyridin-2-yl)methyl)-1,3-dihydrofuro[3,4-c]quinoline-8-carboxamide]
HCT116 MTAP null cells
  IC50: 17 nM
HCT116 WT cells
  IC50: 1560 nM

## CC1OCc2c1c(N)nc1ccc(C(=O)N(Cc3ccc(C(F)(F)F)cn3)Cc3cnc(N)s3)cc21 (stereo not shown) [Example 918, 4-amino-N-((2-aminothiazol-5-yl)methyl)-3-methyl-N-((5-(trifluoromethyl)pyridin-2-yl)methyl)-1,3-dihydrofuro[3,4-c]quinoline-8-carboxamide]
HCT116 MTAP null cells
  IC50: 54 nM
HCT116 WT cells
  IC50: > 1000 nM

## CC1OCc2c1c(N)nc1ccc(C(=O)N(C)Cc3ccc(C(F)(F)F)cn3)cc21 (stereo not shown) [Example 929, 4-amino-N,3-dimethyl-N-((5-(trifluoromethyl)pyridin-2-yl)methyl)-1,3-dihydrofuro[3,4-c]quinoline-8-carboxamide]
HCT116 MTAP null cells
  IC50: 200 nM
HCT116 WT cells
  IC50: > 1000 nM

## CCN(Cc1ccc(C(F)(F)F)cn1)C(=O)c1ccc2nc(N)c3c(c2c1)COC3C (stereo not shown) [Example 930, 4-amino-N-ethyl-3-methyl-N-((5-(trifluoromethyl)pyridin-2-yl)methyl)-1,3-dihydrofuro[3,4-c]quinoline-8-carboxamide]
HCT116 MTAP null cells
  IC50: 61 nM
HCT116 WT cells
  IC50: > 10000 nM

## CC1OCc2c1c(N)nc1ccc(C(=O)N(Cc3ccc(C(F)(F)F)cn3)C(C)C)cc21 (stereo not shown) [Example 931, 4-amino-N-isopropyl-3-methyl-N-((5-(trifluoromethyl)pyridin-2-yl)methyl)-1,3-dihydrofuro[3,4-c]quinoline-8-carboxamide]
HCT116 MTAP null cells
  IC50: 72 nM
HCT116 WT cells
  IC50: 9600 nM

## CN(Cc1ccc(C(F)(F)F)cn1)C(=O)c1ccc2nc(N)c3c(c2c1)COC3(C)C [Example 932, 4-amino-N,3,3-trimethyl-N-((5-(trifluoromethyl)pyridin-2-yl)methyl)-1,3-dihydrofuro[3,4-c]quinoline-8-carboxamide]
HCT116 MTAP null cells
  IC50: 860 nM
HCT116 WT cells
  IC50: 1700 nM

## CCN(Cc1ccc(C(F)(F)F)cn1)C(=O)c1ccc2nc(N)c3c(c2c1)COC3(C)C [Example 933, 4-amino-N-ethyl-3,3-dimethyl-N-((5-(trifluoromethyl)pyridin-2-yl)methyl)-1,3-dihydrofuro[3,4-c]quinoline-8-carboxamide]
HCT116 MTAP null cells
  IC50: 560 nM
HCT116 WT cells
  IC50: > 10000 nM

## CC(C)N(Cc1ccc(C(F)(F)F)cn1)C(=O)c1ccc2nc(N)c3c(c2c1)COC3(C)C [Example 934, 4-amino-N-isopropyl-3,3-dimethyl-N-((5-(trifluoromethyl)pyridin-2-yl)methyl)-1,3-dihydrofuro[3,4-c]quinoline-8-carboxamide]
HCT116 MTAP null cells
  IC50: 79 nM
HCT116 WT cells
  IC50: > 1000 nM

## CC1(C)OCc2c1c(N)nc1ccc(C(=O)N(Cc3ccc(C(F)(F)F)cn3)C3CC3)cc21 [Example 935, 4-amino-N-cyclopropyl-3,3-dimethyl-N-((5-(trifluoromethyl)pyridin-2-yl)methyl)-1,3-dihydrofuro[3,4-c]quinoline-8-carboxamide]
HCT116 MTAP null cells
  IC50: 630 nM
HCT116 WT cells
  IC50: > 1000 nM

## CC(c1ncc(C(F)(F)F)cc1C#N)N(C)C(=O)c1cc2c(cc1F)nc(N)c1cnn(C)c12 (stereo not shown) [Example 936, 4-amino-N-(1-(3-cyano-5-(trifluoromethyl)pyridin-2-yl)ethyl)-7-fluoro-N,1-dimethyl-1H-pyrazolo[4,3-c]quinoline-8-carboxamide]
HCT116 MTAP null cells
  IC50: 721 nM
HCT116 WT cells
  IC50: 18700 nM
